One molecule from patent US7544666B2, “NAP derivatives” (Industrial Technology Research Institute, priority 2005, dated 2009) can be followed below.

SMILES strings stand for the structures.

Data set [1] has as its system scopolamine-induced amnesia rats. Briefly: Morris water maze in scopolamine-induced amnesia rats. It is filed as in vivo, rat. The settings on record: 0.25 mg/kg subcutaneous, 5 min after scopolamine 1 mg/kg i.p.; FIG. 11. How it is done:
Scopolamine-induced amnesia […] were used in combination of Morris water maze, a memory and behavior analysis system, to assess the in vivo effects of the NAP derivative BMEC-NAP0701 and NAP.
Sprague-Dawley male rats with body weight of 220-250 g obtained from the National Laboratory Animal Center, Taiwan, were caged in an air-conditioned housing with a temperature of 23±1° C. and kept on an alternating 12-hour light and 12-hour dark schedule with sufficient feed and water. […]
Morris Water Maze was performed with a water maze device containing a stainless pool with a size of 160 cm in diameter, 50 cm in height, and 15 mm in thickness of the wall and a platform with a size of 11 cm in diameter, and 22 cm in height. […] The swimming time and track were recorded by VEDEOMEX-V video tracing system, video recorder, and monitor (Columbus Instruments) and analyzed by Water Maze Program (Columbus Instruments). […]
Late of the third day: Two to four hours after the third day training, the platform was removed from the pool. The trained rats were separately sent to quadrant I and the swimming track was recorded for 60 sec. The time spent in finding the original platform was also recorded. […]
Early of the fifth day: The platform was placed in the quadrant II and submerged beneath water level about 1 cm. The rats were separately sent to quadrant I and the time spent in finding the platform was recorded. […]

Data set [2] can be described thus: Stability in Hanks' balanced salt solution (HBSS). It is filed as physicochemical. The settings on record: 37° C., relative to initial conc. in HBSS = 100.00. Summed up: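 Compounds at 500 μM initial concentration were incubated 4 h at 37 °C in HBSS alone or on the apical side of Caco-2 monolayers (cultured 18–26 days, TEER over 350 Ω×cm^2). Apical and basolateral levels were quantified by reverse-phase HPLC at 210 nm against the initial concentration.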

A further data set concerns PC12 cells. The data set is described as follows: Neural protection in H2O2/PC12 cell system (MTT). The settings on record: 500 μM H2O2-induced PC12 cytotoxicity. It is filed as cell-based. The procedure: The neural protection of NAP and the NAP derivatives prepared in EXAMPLE 1 were measured by H2O2/PC12 cell system. PC12 cells (4×10^4 cells) were seeded into a 96-well plate and incubated for 24 hours. NAP and the NAP derivatives prepared in EXAMPLE 1 at different concentration were added into the plate and incubated at 37° C. for 4 hours. Hydrogen peroxide with a concentration of 500 μM was then added to induce cytotoxicity. After 24 hours, supernatants were discarded and MTT [3-(4,5-dimethylthiazol-2-yl)-2,5-diphenyltetrazolium bromide] solution (0.5 mg/ml) was added for 4-hour reaction at 37° C. One hundred and fifty μl of DMSO was added to solve formazan product. Absorbance was measured by Microplate Reader at 570 nm, and cell viability was calculated. […] FIGS. 3 to 8 show the cell protection of the NAP derivatives from H2O2-induced PC12 cytotoxicity.

As to `CC[C@H](C)[C@H](NC(=O)[C@H](CO)NC(=O)[C@@H](NC(=O)[C@@H]1CCCN1C(=O)[C@H](C)NC(=O)[C@@H](N)CC(N)=O)C(C)C)C(=O)N1CCC[C@H]1C(=O)N[C@@H](CCC(N)=O)C(=O)O` [BMEC-NAP, H-NAPVSIPQ-OH, reference compound], the “memory improving effect (time spent in finding the platform vs scopolamine-induced rats)” value in data set [1] is given as “memory improving effect in vivo”. Moreover, the “Conc. after 4-hour in HBSS” value in data set [2] came out at 99.21. The “concentration level at which cell viability was increased” value with PC12 cells is given as “picomolar (i.e. 10^−12) level”. In the data set with PC12 cells (4 h pre-incubation), the “concentration level of cell protection effect” value was “femtomolar (i.e. 10^−15) level”.
